Biological target: abnormal prion protein (Ovis aries, UniProt P23907)
Format: biochemical, sheep

Chain of abnormal prion protein (P23907 25-233 limits assumed): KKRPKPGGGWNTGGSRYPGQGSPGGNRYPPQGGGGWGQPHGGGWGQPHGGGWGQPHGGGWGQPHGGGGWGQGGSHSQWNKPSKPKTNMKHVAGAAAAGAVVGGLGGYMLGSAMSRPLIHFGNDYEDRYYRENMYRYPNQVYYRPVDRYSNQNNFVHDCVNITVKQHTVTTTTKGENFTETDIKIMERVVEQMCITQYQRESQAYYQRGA

## CC(C)C[C@H](N)C(=O)O [leucine]
Leucine 15 mg/mL, PMCA
  suppression of proliferation of abnormal prion protein in vitro: effectively suppressed proliferation of abnormal prion protein
Leucine final concentration 15 mg/mL, up to 10 cycles of incubation-sonication, PK 50 μg/mL
  bands of PK resistant fragments after PMCA (Western blotting): no prominent bands were formed
